Key:
[1] = Particle size distribution by microscopic examination; format: physicochemical
Method: For the purposes of this specification the particle size of the particles was determined by microscopic examination. It should be assumed that the particles are of a constant thickness. The surface area of each visible particle face should be determined, and the particle size calculated by calculating the square root of the visible surface area of each particle.
(§1) The particle size of the ibuprofen crystallites precipitated during the cooling and stirring of the above formulation was compared with that of the unreacted ibuprofen powder. The respective particle sizes were determined by microscopic examination. It was assumed that the crystals were of a constant thickness. The surface area of each crystal was then determined, and the particle size calculated by calculating the square root of the measured surface area. This value was then taken to be the length of side. The total area of the counted particles was measured and the sum of the areas of the different size ranges estimated as a percentage of the total. The results were: Table 1
as §1, with “crystals” for “ibuprofen crystallites precipitated during the cooling and stirring of the above formulation was compared with that of the unreacted ibuprofen powder. The respective particle sizes”

[2] = according to Gruber et al; cited from earlier work
[3] = Urinary ibuprofen after topical application to shaved dorsal skin; format: in vivo, Hooded Wistar rats; conditions: topically applied composition according to the invention
Description: Four anesthetized Hooded Wistar rats were fitted with jugular and bladder catheters. […] Plastic covers were placed over the shaved area to prevent the animals ingesting the applied composition.
The animals were placed in metabolism cages and the urinary ibuprofin monitored.

Row | Percentage Particles in Size range ([1]; size range 10-20µm) [Percentage] | Percentage Particles in Size range ([1]; size range 20-50µm) [Percentage] | Percentage Particles in Size range ([1]; size range 50-100µm) [Percentage] | Percentage Particles in Size range ([1]; size range >100µm) [Percentage] | Compound | solubility in water and conventional media [2] | absorption kinetics [3] | time still being excreted after topical application [3]
1 | 0.36 | 0.57 | 2.7 | 96 | O=C1O[C@H]([C@@H](O)CO)C(O)=C1O [Unformulated Ascorbic Acid, ascorbic acid] | – | – | –
2 | – | – | – | – | CC(C)Cc1ccc(C(C)C(=O)O)cc1 (stereo not shown) [ibuprofen] | only sparingly soluble | zero order kinetics | more than 160 hours

Reference: patent EP0572494B1, “COMPOSITION FOR USE IN TRANSDERMAL ADMINISTRATION” (priority 1991, dated 1992)
